Source: patent US20260130933A1, “PHARMACEUTICAL COMPOSITION FOR PREVENTION OR TREATMENT OF NEPHROPATHY AND/OR DIABETES MELLITUS, COMPRISING ENAVOGLIFLOZIN” (DAEWOONG PHARMACEUTICAL CO., LTD., priority 2022, published 2026)

Experiment: Example 2: phase 3 trial, enavogliflozin 0.3 mg vs dapagliflozin 10 mg once a day for 24 weeks added to metformin in patients with type 2 diabetes (same efficacy, exploratory and safety endpoints)
Type: in vivo, human
Experimental: Subjects who met the inclusion/exclusion criteria were administered a placebo of the clinical trial drug under single-blind (subject blinding) conditions during a 2-week run-in period while continuing to receive metformin. […] The randomized subjects were administered two tablets of the clinical trial drug for each administration group once a day, and then visited the institution at weeks 6, 12, 18, and 24 during the 24-week administration period to conduct efficacy and safety evaluations.
• 1. Change in HbA1c at week 24 after administration of clinical trial drug compared to Visit 2 (randomization)
• 1. Change in HbA1c at each time point of weeks 6, 12, and 18 after administration of clinical trial drug compared to Visit 2 (randomization) • 2. Change in FPG at each time point of weeks 6, 12, 18, and 24 after administration of clinical trial drug compared to Visit 2 (randomization) • 3. Proportion of subjects achieving HbA1c<7% at each time point of weeks 6, 12, 18, and 24 after administration of clinical trial drug • 4. Proportion of subjects achieving HbA1c<6.5% at each time point of weeks 6, 12, 18, and 24 after administration of clinical trial drug • 5. Proportion of subjects achieving therapeutic response (HbA1c change (HbA1c at Visit 2-HbA1c at each evaluation time point)>0.5% or HbA1c<7% at each evaluation time point compared to Visit 2 (randomization)) at each time point of weeks 6, 12, 18 and 24 after administration of clinical trial drug
• 1. Change in fasting c-peptide at each time point of weeks 6, 12, 18, and 24 after administration of clinical trial drug compared to Visit 2 (randomization) • 2. Change in body weight at each time point of weeks 6, 12, 18, and 24 after administration of clinical trial drug compared to Visit 2 (randomization) • 3. Change in fasting lipid concentration (total cholesterol, LDL-C, HDL-C, and triglycerides) at each time point of weeks 6, 12, 18, and 24 after administration of clinical trial drug compared to Visit 2 (randomization) • 4. Changes in systolic or diastolic blood pressure at each time point of weeks 6, 12, 18, and 24 after administration of clinical trial drug compared to Visit 2 (randomization) • 5. Changes in β-cell function and insulin resistance measured by HOMA-β and HOMA-IR at each time point of weeks 6, 12, 18, and 24 after administration of clinical trial drug compared to Visit 2 (randomization) • 6. Changes in renal function-related indicators (UACR, UGCR) measured by UACR at each time point of weeks 6, 12, 18, and 24 after administration of clinical trial drug compared to Visit 2 (randomization) • 7. Changes in obesity-related indicators (adiponectin, leptin) at each time point of weeks 6, 12, 18, and 24 after administration of clinical trial drug compared to Visit 2 (randomization)

[1] = Week 6, PPS, enavogliflozin minus dapagliflozin
[2] = Week 6, mPPS1, enavogliflozin minus dapagliflozin
[3] = Week 6, mPPS2, enavogliflozin minus dapagliflozin
[4] = Week 12, PPS, enavogliflozin minus dapagliflozin

Compound: OC[C@H]1O[C@@H](c2cc(Cc3ccc(C4CC4)cc3)c(Cl)c3c2CCO3)[C@H](O)[C@@H](O)[C@@H]1O [Enavogliflozin, (2S,3R,4R,5S,6R)-2-(7-chloro-6 (4-cyclopropylbenzyl)-2,3-dihydrobenzofuran-4-yl)-6-(hydroxymethyl)tetrahydro-2H-pyran-3,4,5-triol]
- UGCR change from baseline, LS mean difference [1]: 15.62 mg/mg
- leptin change from baseline, LS mean difference [1]: -0.81 ng/mL
- HDL-C change from baseline, ANCOVA LS mean (SE) (Week 6, mPPS1): 1.11(0.58) mg/dL
- HDL-C change from baseline, Mean (SD) (Week 6, mPPS1): 1.18(5.14) mg/dL
- HDL-C change from baseline, Median (Week 6, mPPS1): 1.00 mg/dL
- HDL-C, Mean (SD) (Week 6, mPPS1): 52.12(11.10) mg/dL
- HDL-C, Median (Week 6, mPPS1): 51.00 mg/dL
- LDL-C change from baseline, ANCOVA LS mean (SE) (Week 6, mPPS1): −0.09(1.89) mg/dL
- LDL-C change from baseline, Mean (SD) (Week 6, mPPS1): −0.67(15.12) mg/dL
- LDL-C change from baseline, Median (Week 6, mPPS1): -2.00 mg/dL
- LDL-C, Mean (SD) (Week 6, mPPS1): 85.85(31.51) mg/dL
- LDL-C, Median (Week 6, mPPS1): 79.00 mg/dL
- Triglycerides change from baseline, ANCOVA LS mean (SE) (Week 6, mPPS1): 8.62(6.88) mg/dL
- Triglycerides change from baseline, Mean (SD) (Week 6, mPPS1): 9.49(73.63) mg/dL
- Triglycerides change from baseline, Median (Week 6, mPPS1): -3.00 mg/dL
- Triglycerides, Mean (SD) (Week 6, mPPS1): 131.59(114.93) mg/dL
- Triglycerides, Median (Week 6, mPPS1): 97.00 mg/dL
- HDL-C change from baseline, LS mean difference [2]: -0.49 mg/dL
- LDL-C change from baseline, LS mean difference [2]: -4.29 mg/dL
- triglycerides change from baseline, LS mean difference [2]: 18.76 mg/dL
- Diastolic blood pressure change from baseline, ANCOVA LS mean (SE) (Week 6, mPPS2): −2.75 mmHg
- Diastolic blood pressure change from baseline, Mean (SD) (Week 6, mPPS2): −2.80 mmHg
- Diastolic blood pressure change from baseline, Median (Week 6, mPPS2): −3.00 mmHg
- Diastolic blood pressure, Mean (SD) (Week 6, mPPS2): 74.25 mmHg
- Diastolic blood pressure, Median (Week 6, mPPS2): 74.00 mmHg
- Systolic blood pressure change from baseline, ANCOVA LS mean (SE) (Week 6, mPPS2): −3.29(1.02) mmHg
- Systolic blood pressure change from baseline, Mean (SD) (Week 6, mPPS2): −3.28(9.34) mmHg
- Systolic blood pressure change from baseline, Median (Week 6, mPPS2): −4.00 mmHg
- Systolic blood pressure, Mean (SD) (Week 6, mPPS2): 126.44(14.45) mmHg
- Systolic blood pressure, Median (Week 6, mPPS2): 128.00 mmHg
- diastolic blood pressure change from baseline, LS mean difference [3]: −1.28 mmHg
- systolic blood pressure change from baseline, LS mean difference [3]: −0.58 mmHg
- Adiponectin change from baseline, ANCOVA LS mean (SE) (Week 12, PPS): 0.84 µg/mL
- Adiponectin change from baseline, Mean (SD) (Week 12, PPS): 0.9 µg/mL
- Adiponectin change from baseline, Median (Week 12, PPS): 0.68 µg/mL
- Adiponectin, Mean (SD) (Week 12, PPS): 7.87 µg/mL
- Adiponectin, Median (Week 12, PPS): 6.91 µg/mL
- HOMA-IR change from baseline, ANCOVA LS mean (SE) (Week 12, PPS): −1.58
- HOMA-IR change from baseline, Mean (SD) (Week 12, PPS): −1.36
- HOMA-IR change from baseline, Median (Week 12, PPS): −0.99
- HOMA-IR, Mean (SD) (Week 12, PPS): 2.10
- HOMA-IR, Median (Week 12, PPS): 1.61
- HOMA-β change from baseline, ANCOVA LS mean (SE) (Week 12, PPS): 5.57
- HOMA-β change from baseline, Mean (SD) (Week 12, PPS): 5.59
- HOMA-β change from baseline, Median (Week 12, PPS): 5.10
- HOMA-β, Mean (SD) (Week 12, PPS): 51.45
- HOMA-β, Median (Week 12, PPS): 41.60
- Leptin change from baseline, ANCOVA LS mean (SE) (Week 12, PPS): -2.64 ng/mL
- Leptin change from baseline, Mean (SD) (Week 12, PPS): -2.73 ng/mL
- Leptin change from baseline, Median (Week 12, PPS): -1.45 ng/mL
- Leptin, Mean (SD) (Week 12, PPS): 9.56 ng/mL
- Leptin, Median (Week 12, PPS): 6.60 ng/mL
- UACR change from baseline, ANCOVA LS mean (SE) (Week 12, PPS): -21.65 g/kg
- UACR change from baseline, Mean (SD) (Week 12, PPS): -18550 mg/kg
- UACR change from baseline, Median (Week 12, PPS): -1.40 g/kg
- UACR, Mean (SD) (Week 12, PPS): 19800 mg/kg
- UACR, Median (Week 12, PPS): 11.05 g/kg
- UGCR change from baseline, ANCOVA LS mean (SE) (Week 12, PPS): 64.70 mg/mg
- UGCR change from baseline, Mean (SD) (Week 12, PPS): 63.04 mg/mg
- UGCR change from baseline, Median (Week 12, PPS): 58.91 mg/mg
- UGCR, Mean (SD) (Week 12, PPS): 64.53 mg/mg
- UGCR, Median (Week 12, PPS): 62.30 mg/mg
- HOMA-IR change from baseline, LS mean difference [4]: 0.02
- HOMA-β change from baseline, LS mean difference [4]: −3.17
- UACR change from baseline, LS mean difference [4]: -18.27 g/kg
- UGCR change from baseline, LS mean difference [4]: 19.57 mg/mg
- leptin change from baseline, LS mean difference [4]: 0.07 ng/mL
- HDL-C change from baseline, ANCOVA LS mean (SE) (Week 12, mPPS1): 2.31(0.60) mg/dL
- HDL-C change from baseline, Mean (SD) (Week 12, mPPS1): 2.08(5.60) mg/dL
- HDL-C change from baseline, Median (Week 12, mPPS1): 2.00 mg/dL
